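The compound was tested at five concentrations on cells cultured in 96-well plates, with a 48-hour exposure period. At the GI50, growth is halved.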 Calls of active or inactive are those of the source. Rule as the data show it: active = GI50 up to about 1.1 µM and inactive = higher.
Columns and labels:
Assay in all cases: NCI tumour cell line growth inhibition, 48 h
[1] = system: SK-MEL-28
[2] = system: HOP-92
[3] = system: HCT-116
[4] = system: OVCAR-3
[5] = system: UO-31
[6] = system: KM12
[7] = system: HOP-62
[8] = system: MOLT-4
[9] = system: NCI/ADR-RES
[10] = system: SF-295
[11] = system: SK-MEL-5
[12] = system: SK-OV-3
[13] = system: DU-145
[14] = system: SF-539
[15] = system: Malme-3M
[16] = system: NCI-H23
[17] = system: CCRF-CEM
[18] = system: ACHN
[19] = system: K562
[20] = system: HT-29
[21] = system: HL-60
[22] = system: PC-3
[23] = system: MCF7
[24] = system: U-251
[25] = system: LOX IMVI
[26] = system: SF-268
[27] = system: SW-620
[28] = system: NCI-H226
[29] = system: SR
[30] = system: Hs-578T
[31] = system: A498
[32] = system: UACC-257
[33] = system: MDA-MB-231
[34] = system: IGROV-1
[35] = system: TK-10
[36] = system: T47D
[37] = system: OVCAR-8
[38] = system: NCI-H522
[39] = system: CAKI-1
[40] = system: HCC 2998
[41] = system: SN12C
[42] = system: OVCAR-5
[43] = system: EKVX
[44] = system: RXF 393
[45] = system: MDA-N
[46] = system: NCI-H460
[47] = system: 786-0
[48] = system: MDA-MB-435
[49] = system: BT-549
[50] = system: UACC-62
[51] = system: RPMI-8226
[52] = system: SK-MEL-2
[53] = system: A549
[54] = system: COLO 205
[55] = system: M14
[56] = system: SNB-19
[57] = system: HCT-15
[58] = system: SNB-75
[59] = system: OVCAR-4

Measured: GI50

O=C(ON=C1c2ccccc2C(Br)C(Br)c2ccccc21)c1ccccc1 (stereo not drawn)
active: [17] 0.673 µM | [21] 0.59 µM
17.6 µM: [57]
inactive: [1] 18.2 µM | [2] 1.17 µM | [3] 14.6 µM | [4] 14.8 µM | [5] 3.79 µM | [6] 17.9 µM | [7] 12.7 µM | [8] 2.04 µM | [9] 22.8 µM | [10] 18.5 µM | [11] 17.1 µM | [12] 18.6 µM | [13] 17.5 µM | [14] 7.01 µM | [15] 20.7 µM | [16] 19.4 µM | [18] 17.7 µM | [19] 2.95 µM | [20] 17.1 µM | [22] 19.8 µM | [23] 14.9 µM | [24] 17.7 µM | [25] 4.28 µM | [26] 20.7 µM | [27] 8.49 µM | [28] 18 µM | [29] 3.09 µM | [30] 21.5 µM | [31] 25.2 µM | [32] 15.6 µM | [33] 16.7 µM | [34] 2.44 µM | [35] 15.8 µM | [36] 9.57 µM | [37] 9.18 µM | [38] 1.69 µM | [39] 9.48 µM | [40] 21.8 µM | [41] 20.7 µM | [42] 18.8 µM | [43] 23.1 µM | [44] 14.1 µM | [45] 17.8 µM | [46] 13.4 µM | [47] 9.62 µM | [48] 17.3 µM | [49] 19.6 µM | [50] 16.7 µM | [51] 4.57 µM | [52] 30.2 µM | [53] 20.6 µM | [54] 15.8 µM | [55] 17.3 µM | [56] 20.7 µM | [58] 21.6 µM | [59] 13.2 µM

CC(=O)NCCC1CN(C(=O)/C=C\I)c2ccccc21 (stereo not drawn)
inactive: [1] 16 µM | [2] 21.7 µM | [3] 14.6 µM | [4] 15 µM | [5] 7.69 µM | [6] 5.7 µM | [7] 11.2 µM | [8] 5.53 µM | [9] 25.5 µM | [10] 15.3 µM | [11] 3.48 µM | [12] 20 µM | [13] 13.9 µM | [14] 5.32 µM | [15] 15.2 µM | [16] 16.4 µM | [17] 3.03 µM | [18] 14.5 µM | [19] 3.76 µM | [20] 11.7 µM | [21] 2.7 µM | [22] 11.7 µM | [23] 2.56 µM | [24] 12.9 µM | [25] 3.08 µM | [26] 15.5 µM | [27] 12.7 µM | [28] 10.7 µM | [29] > 33.7 µM | [30] 27.2 µM | [31] 18.4 µM | [32] 13.8 µM | [33] 4.13 µM | [34] 15.1 µM | [35] 6.17 µM | [36] 18.2 µM | [37] 16.2 µM | [38] 1.78 µM | [39] 1.73 µM | [40] 15.2 µM | [41] 4.97 µM | [42] 16.6 µM | [43] 17.3 µM | [44] 7.29 µM | [45] 12.6 µM | [46] 9.75 µM | [47] 10.6 µM | [48] 14.2 µM | [49] 21.6 µM | [50] 13 µM | [51] 2.08 µM | [52] 16 µM | [53] 13.8 µM | [54] 11.7 µM | [55] 11.7 µM | [56] 20.4 µM | [58] 17.8 µM | [59] 18.9 µM
7.71 µM: [57]

Source: ChEMBL document CHEMBL1201862, “PubChem BioAssay data set” (2004)
